Assay results from patent US9145418B2, “Substituted 3,4-dihydropyrrolo[1,2-a]pyrazin-1(2H)-ones as protein kinase inhibitors” (NERVIANO MEDICAL SCIENCES S.R.L., priority 2011, dated 2015).

Key:
[1] = test system: MV-4-11 (biphenotypic B myelomonocytic leukemia) cells; assay: In vitro cell proliferation assay (CellTiter-Glo); format: cell-based; conditions: Homo sapiens, MV4-11, MV-4-11 cells, 72 hours
Description: In vitro Cell Proliferation Assay
MV-4-11 (biphenotypic B myelomonocytic leukemia) cells (1250 cells/well) were seeded in white 384 well-plates in complete medium (RPMI 1640 or EMEM plus 10% Fetal bovine serum) and treated with compounds dissolved in 0.1% DMSO, 24 h after seeding. The cells were incubated at 37° C. and 5% CO2 and after 72 hours the plates were processed using CellTiter-Glo assay (Promega) following the manufacturer's instruction.
CellTiter-Glo is a homogenous method based on the quantification of the ATP present, an indicator of metabolically active cells. ATP is quantified using a system based on luciferase and D-luciferin resulting into light generation. The luminescent signal is proportional to the number of cells present in culture.
Briefly 25 μl/well reagent solution were added to each wells and after 5 minutes shacking microplates were red by Envision (PerkinElmer) luminometer. The luminescent signal was proportional to the number of cells present in culture.
Inhibitory activity was evaluated comparing treated versus control data using Assay Explorer (MDL) program. IC50 was calculated using sigmoidal interpolation curve.

[2] = molecular target: Full-length human PIM1 (Homo sapiens (Human), UniProt P11309); assay: Biochemical assay for inhibitors of PIM1 kinase activity (33P trans-phosphorylation, Dowex); conditions: ATP 200 μM, Aktide 25 μM, enzyme 1 nM; read-out: PIM-1 IC50
Description: The short forms and abbreviations used herein have the following meaning: • Ci Curie • DMSO dimethylsulfoxide • KDa kiloDalton • microCi microCurie • mg milligram • microg microgram • ng nanogram • L liter • mL milliliter • μL microliter • M molar • mM millimolar • μM micromolar • nM nanomolar Biochemical Assay for Inhibitors of PIM1 Kinase Activity
The inhibitory activity of putative kinase inhibitors and the potency of selected compounds were determined using a trans-phosphorylation assay.
Specific peptide or protein substrates are trans-phosphorylated by their specific ser-thr or tyr kinase in the presence of ATP traced with ^33P-γ-ATP, and in the presence of their own optimal buffer and cofactors.
At the end of the phosphorylation reaction, more than 98% unlabeled ATP and radioactive ATP is captured by an excess of the ion exchange Dowex resin; the resin then settles down to the bottom of the reaction plate by gravity. Supernatant is subsequently withdrawn and transferred into a counting plate, then evaluated by β-counting.
The buffer for PIM1 assay was composed of HEPES 50 mM, at pH 7.5, with 10 mM MgCl2, 1 mM DTT, 3 μM NaVO3, and 0.2 mg/mL BSA.
Full-length human PIM1 was expressed and purified as described in Bullock A N, et al., J. Biol. Chem. 2005, 280, 41675-82.
ATP concentration: 200 μM
Enzyme concentration: 1 nM
Substrate concentration Aktide (Chemical Abstract Service Registry Number 324029-01-8): 25 μM
The test mix consisted of: • 1) 3× Enzyme mix (done in Kinase Buffer 3×), 5 μL/well • 2) 3× substrate and ATP mix (done in ddH2O), together with ^33P-γ-ATP, 5 μL/well • 3) 3× test compounds (diluted into ddH2O-3% DMSO)—5 μL/well
An automated station (Biomek FX, Beckman) was used for serial dilutions, producing 1:3 dilutions in 100% DMSO, from line A1 to A10, for all the compounds in the column. […] In a standard experiment, the highest concentration (3×) of compounds is typically 30 μM, while the lowest one is typically 1.5 nM. Each 384-well plate generates at least one curve of the standard inhibitor staurosporine and reference wells (total enzyme activity vs. no enzymatic activity) for evaluation of Z′ and signal to background (SIB) ratio.
384-well plates, V bottom (test plates) are prepared with 5 μl of compound diluted as previously described (3×) and then placed onto a PlateTrak 12 robotized station (Perkin Elmer; the robot has one 384-tip pipetting head for assay start, plus one 96-tip head for dispensing resin) together with one reservoir for Enzyme mix (3×) and one for ATP mix (3×).
Data are analyzed by an internally customized version of the “Assay Explorer” SW package, which provides sigmoidal fitting of the ten-dilution curves for IC50 determination in secondary assay/hit confirmation routines.

[3] = molecular target: Full-length human PIM2 (Homo sapiens (Human), UniProt Q9P1W9); assay: PIM2 kinase inhibition assay: Dowex technique; format: biochemical; conditions: ATP 4 μM, Aktide 5 μM, enzyme 1.5 nM; read-out: PIM-2 IC50
Description: Method for PIM2 Kinase Inhibition Assay: Dowex Technique
The buffer for PIM2 assay was composed of HEPES 50 mM, at pH 7.5, with 1 mM MgCl2, 1 mM DTT, 3 μM Na3VO4, and 0.2 mg/mL BSA.
Full-length human PIM2 was expressed and purified as described in Fedorov O, et al., PNAS 2007 104, 51, 20523-28.
Enzyme concentration=1.5 nM
Aktide substrate (Chemical Abstract Service Registry Number 324029-01-8)=5 μM
See above: same procedure as described for PIM1.

Chain of Full-length human PIM2 (Q9P1W9 whole entry): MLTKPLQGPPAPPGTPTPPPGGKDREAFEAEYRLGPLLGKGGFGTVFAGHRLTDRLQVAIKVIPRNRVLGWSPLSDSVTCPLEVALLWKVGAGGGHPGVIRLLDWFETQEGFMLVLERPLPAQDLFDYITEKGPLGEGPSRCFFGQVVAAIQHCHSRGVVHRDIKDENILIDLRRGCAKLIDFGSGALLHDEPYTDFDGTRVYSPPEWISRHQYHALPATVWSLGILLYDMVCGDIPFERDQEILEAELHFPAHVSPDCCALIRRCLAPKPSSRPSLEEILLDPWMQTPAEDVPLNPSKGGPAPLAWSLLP
Chain of Full-length human PIM1 (P11309 whole entry): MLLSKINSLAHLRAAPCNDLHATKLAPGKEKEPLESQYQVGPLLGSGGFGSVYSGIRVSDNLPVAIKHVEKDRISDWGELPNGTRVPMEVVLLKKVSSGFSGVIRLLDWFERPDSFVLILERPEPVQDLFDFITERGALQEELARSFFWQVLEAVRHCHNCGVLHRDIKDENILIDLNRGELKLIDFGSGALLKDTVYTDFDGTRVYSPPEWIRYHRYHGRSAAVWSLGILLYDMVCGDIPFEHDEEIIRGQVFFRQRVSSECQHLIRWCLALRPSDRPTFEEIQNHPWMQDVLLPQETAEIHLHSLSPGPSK

| Structure (SMILES) | IC50 [1] | IC50 [2] | IC50 [3] |
| --- | --- | --- | --- |
| CN1CCN(C[C@@H](NC(=O)C[C@H]2CNC(=O)c3cc(-c4cccc(Cl)c4)cn32)C2CCCCC2)CC1 [Compound 2, 2-[(4S)-7-(3-chlorophenyl)-1-oxo-1,2,3,4-tetrahydropyrrolo[1,2-a]pyrazin-4-yl]-N-[(1S)-1-cyclohexyl-2-(4-methylpiperazin-1-yl)ethyl]acetamide] | 1.53 µM | 0.001 µM |  |
| CN(C)C1CCN(C[C@@H](NC(=O)C[C@H]2CNC(=O)c3cc(-c4ccc(F)c(F)c4)cn32)C2CCCCC2)CC1 [Compound 6, N-{(1S)-1-cyclohexyl-2-[4-(dimethylamino)piperidin-1-yl]ethyl}-2-[(4S)-7-(3,4-difluorophenyl)-1-oxo-1,2,3,4-tetrahydropyrrolo[1,2-a]pyrazin-4-yl]acetamide] | 3.15 µM | 0.008 µM | 0.171 µM |
| CN(C)C1CCN(C[C@@H](NC(=O)C[C@H]2CNC(=O)c3cc(-c4ccnc(F)c4)cn32)C2CCCCC2)CC1 [Compound 10, N-{(1S)-1-cyclohexyl-2-[4-(dimethylamino)piperidin-1-yl]ethyl}-2-[(4S)-7-(2-fluoropyridin-4-yl)-1-oxo-1,2,3,4-tetrahydropyrrolo[1,2-a]pyrazin-4-yl]acetamide] | 6.75 µM | 0.006 µM | 0.057 µM |
| CN(C)C1CCN(C[C@@H](NC(=O)C[C@H]2CNC(=O)c3cc(-c4cccc(Cl)c4)cn32)C2CCCCC2)CC1 [Compound 23, 2-[(4S)-7-(3-chlorophenyl)-1-oxo-1,2,3,4-tetrahydropyrrolo[1,2-a]pyrazin-4-yl]-N-{(1S)-1-cyclohexyl-2-[4-(dimethylamino)piperidin-1-yl]ethyl}acetamide] | 1.13 µM | 0.001 µM | 0.036 µM |
| CN1CCN(C[C@@H](NC(=O)C[C@H]2CNC(=O)c3cc(-c4cc(Cl)ccc4F)cn32)C2CCCCC2)CC1 [Compound 26, 2-[(4S)-7-(5-chloro-2-fluorophenyl)-1-oxo-1,2,3,4-tetrahydropyrrolo[1,2-a]pyrazin-4-yl]-N-[(1S)-1-cyclohexyl-2-(4-methylpiperazin-1-yl)ethyl]acetamide] | 1.16 µM | 0.002 µM | 0.132 µM |
